The source made the active and inactive calls. No cut-off for these calls is given here.
Assays:
Assay type in all cases: cell-based
[1] = target: T1, Protein cereblon/Tyrosine-protein kinase BTK (Homo sapiens, UniProt Q06187+Q96SW2); experiment: PROTAC activity at CRBN/BTK in human Ramos cells assessed as induction of BTK degradation at 100 nM incubated for 24 hrs by Western blot analysis relative to control
Target sequence in this assay (Q06187 2-659 limits assumed): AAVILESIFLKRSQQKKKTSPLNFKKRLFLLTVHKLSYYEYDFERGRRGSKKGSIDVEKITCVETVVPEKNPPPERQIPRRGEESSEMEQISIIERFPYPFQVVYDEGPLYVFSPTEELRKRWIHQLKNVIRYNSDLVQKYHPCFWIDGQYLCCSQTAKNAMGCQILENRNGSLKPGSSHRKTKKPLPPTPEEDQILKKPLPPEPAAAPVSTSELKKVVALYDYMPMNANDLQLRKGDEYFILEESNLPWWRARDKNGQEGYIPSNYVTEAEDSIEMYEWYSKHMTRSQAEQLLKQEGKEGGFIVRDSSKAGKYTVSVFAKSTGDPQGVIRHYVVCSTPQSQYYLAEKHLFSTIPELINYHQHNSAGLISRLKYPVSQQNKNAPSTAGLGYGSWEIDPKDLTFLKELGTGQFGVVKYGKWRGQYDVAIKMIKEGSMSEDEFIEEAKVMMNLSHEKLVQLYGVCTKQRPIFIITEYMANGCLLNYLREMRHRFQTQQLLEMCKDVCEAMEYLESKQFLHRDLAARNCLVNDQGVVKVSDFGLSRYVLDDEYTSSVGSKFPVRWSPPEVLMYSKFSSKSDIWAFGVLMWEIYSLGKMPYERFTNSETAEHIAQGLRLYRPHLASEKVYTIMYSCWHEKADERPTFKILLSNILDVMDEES
Target sequence in this assay (Q96SW2 whole entry partner): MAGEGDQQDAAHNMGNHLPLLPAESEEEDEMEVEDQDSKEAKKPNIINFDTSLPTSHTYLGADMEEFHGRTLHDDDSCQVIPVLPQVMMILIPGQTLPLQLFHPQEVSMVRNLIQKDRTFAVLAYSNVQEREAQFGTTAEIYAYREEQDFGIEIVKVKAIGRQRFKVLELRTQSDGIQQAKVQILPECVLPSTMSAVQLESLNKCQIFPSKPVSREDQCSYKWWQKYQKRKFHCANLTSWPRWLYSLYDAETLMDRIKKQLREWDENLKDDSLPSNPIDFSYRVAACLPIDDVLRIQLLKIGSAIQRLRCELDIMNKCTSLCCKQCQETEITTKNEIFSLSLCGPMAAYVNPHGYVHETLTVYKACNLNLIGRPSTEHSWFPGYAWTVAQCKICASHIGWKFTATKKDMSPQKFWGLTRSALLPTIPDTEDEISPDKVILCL

[2] = target: T1, Protein cereblon/Tyrosine-protein kinase BTK; experiment: PROTAC activity at CRBN/BTK in human MINO cells assessed as hook effect at >10000 nM incubated for 24 hrs by Western blot analysis
Target sequence in this assay (Q06187 2-659 limits assumed): as the sequence (Q06187 2-659 limits assumed) above
Target sequence in this assay (Q96SW2 whole entry partner): as the sequence (Q96SW2 whole entry partner) above

[3] = target: T1, Protein cereblon/Tyrosine-protein kinase BTK; experiment: PROTAC activity at CRBN/BTK in human Ramos cells assessed as induction of BTK degradation by measuring maximal efficacy incubated for 24 hrs by Western blot analysis relative to control
Target sequence in this assay (Q06187 2-659 limits assumed): as the sequence (Q06187 2-659 limits assumed) above
Target sequence in this assay (Q96SW2 whole entry partner): as the sequence (Q96SW2 whole entry partner) above

[4] = target: T1, Protein cereblon/Tyrosine-protein kinase BTK; experiment: PROTAC activity at CRBN/BTK in human MINO cells assessed as induction of BTK degradation incubated for 24 hrs by Western blot analysis
Target sequence in this assay (Q06187 whole entry): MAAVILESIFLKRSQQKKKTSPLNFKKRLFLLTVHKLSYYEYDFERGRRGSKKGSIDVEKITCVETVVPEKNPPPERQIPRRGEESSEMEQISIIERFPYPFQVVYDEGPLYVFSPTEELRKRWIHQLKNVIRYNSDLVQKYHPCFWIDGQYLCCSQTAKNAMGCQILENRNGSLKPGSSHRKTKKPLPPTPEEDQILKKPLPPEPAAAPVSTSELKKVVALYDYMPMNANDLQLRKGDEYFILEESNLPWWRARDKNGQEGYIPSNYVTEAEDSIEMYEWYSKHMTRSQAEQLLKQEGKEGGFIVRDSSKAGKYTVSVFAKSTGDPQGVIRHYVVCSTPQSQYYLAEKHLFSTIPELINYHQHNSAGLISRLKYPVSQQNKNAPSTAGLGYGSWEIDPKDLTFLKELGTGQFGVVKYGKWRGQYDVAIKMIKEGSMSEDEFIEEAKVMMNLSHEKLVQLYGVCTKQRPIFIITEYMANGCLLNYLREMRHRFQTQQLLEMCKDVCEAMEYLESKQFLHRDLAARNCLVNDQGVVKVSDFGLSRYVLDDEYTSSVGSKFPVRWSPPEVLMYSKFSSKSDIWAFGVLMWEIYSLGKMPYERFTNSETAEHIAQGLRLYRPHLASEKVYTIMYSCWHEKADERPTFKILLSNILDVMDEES
Target sequence in this assay (Q96SW2 whole entry): as the sequence (Q96SW2 whole entry partner) above

[5] = target: T1, Protein cereblon/Tyrosine-protein kinase BTK; experiment: PROTAC activity at CRBN/BTK in human MINO cells assessed as induction of BTK degradation by measuring maximal efficacy incubated for 24 hrs by Western blot analysis relative to control
Target sequence in this assay (Q06187 2-659 limits assumed): as the sequence (Q06187 2-659 limits assumed) above
Target sequence in this assay (Q96SW2 whole entry partner): as the sequence (Q96SW2 whole entry partner) above

[6] = target: T1, Protein cereblon/Tyrosine-protein kinase BTK; experiment: PROTAC activity at CRBN/BTK in human Ramos cells assessed as induction of BTK degradation incubated for 24 hrs by Western blot analysis
Target sequence in this assay (Q06187 whole entry): as the sequence (Q06187 whole entry) above
Target sequence in this assay (Q96SW2 whole entry): as the sequence (Q96SW2 whole entry partner) above

[7] = target: T1, Protein cereblon/Tyrosine-protein kinase BTK; experiment: PROTAC activity at CRBN/BTK in human Ramos cells assessed as hook effect at 1000 nM incubated for 24 hrs by Western blot analysis
Target sequence in this assay (Q06187 2-659 limits assumed): as the sequence (Q06187 2-659 limits assumed) above
Target sequence in this assay (Q96SW2 whole entry partner): as the sequence (Q96SW2 whole entry partner) above

[8] = target: T1, Protein cereblon/Tyrosine-protein kinase BTK; experiment: PROTAC activity at CRBN/BTK in human Ramos cells assessed as induction of BTK degradation at 100 nM incubated for 24 hrs by Western blot analysis
Target sequence in this assay (Q06187 2-659 limits assumed): as the sequence (Q06187 2-659 limits assumed) above
Target sequence in this assay (Q96SW2 whole entry partner): as the sequence (Q96SW2 whole entry partner) above

[9] = target: T1, Protein cereblon/Tyrosine-protein kinase BTK; experiment: PROTAC activity at CRBN/BTK in human Ramos cells assessed as hook effect at 10000 nM incubated for 24 hrs by Western blot analysis
[10] = target: T1, Protein cereblon/Tyrosine-protein kinase BTK; experiment: PROTAC activity at CRBN/BTK in human MINO cells assessed as hook effect upto 10000 nM incubated for 24 hrs by Western blot analysis
[11] = target: T1, Protein cereblon/Tyrosine-protein kinase BTK; experiment: PROTAC activity at CRBN/BTK in human Ramos cells assessed as induction of BTK degradation at 100 nM pretreated with ibrutinib for 2 hrs followed by compound treatment and measured after 8 hrs by Western blot analysis
[12] = target: T1, Protein cereblon/Tyrosine-protein kinase BTK; experiment: PROTAC activity at CRBN/BTK in human Ramos cells assessed as induction of BTK degradation at 100 nM pretreated with MG132 for 2 hrs followed by compound treatment and measured after 8 hrs by Western blot analysis
[13] = target: T1, Protein cereblon/Tyrosine-protein kinase BTK; experiment: PROTAC activity at CRBN/BTK in human Ramos cells assessed as induction of BTK degradation at 100 nM measured after 8 hrs by Western blot analysis relative to control
[14] = target: T1, Protein cereblon/Tyrosine-protein kinase BTK; experiment: PROTAC activity at CRBN/BTK in human Ramos cells assessed as induction of BTK degradation at 100 nM measured within 4 hrs by Western blot analysis
[15] = target: T1, Protein cereblon/Tyrosine-protein kinase BTK; experiment: PROTAC activity at CRBN/BTK in human Ramos cells assessed as induction of BTK degradation at 100 nM pretreated with pomalidomide for 2 hrs followed by compound treatment and measured after 8 hrs by Western blot analysis
[16] = target: T1, Protein cereblon/Tyrosine-protein kinase BTK; experiment: PROTAC activity at CRBN/BTK in human Ramos cells assessed as induction of BTK degradation at 100 nM pretreated with bafilomycin for 2 hrs followed by compound treatment and measured after 8 hrs by Western blot analysis

## Nc1ncnc2c1c(-c1ccc(Oc3ccccc3)cc1)nn2C1CCN(C(=O)CN2CCN(CC3CN(c4cccc5c4C(=O)N(C4CCC(=O)NC4=O)C5=O)C3)CC2)CC1 (centres undefined)
[1]
  Activity: 67.5%
[2]
  Activity: Active
[3]
  Emax: 97.6%
[4]
  EC50: 9.06 nM
[5]
  Emax: 99.7%
[6]
  EC50: 7.27 nM
[7]
  Activity: Active

## Nc1ncnc2c1c(-c1ccc(Oc3ccccc3)cc1)nn2C1CCN(CC2CCN(c3cccc4c3C(=O)N(C3CCC(=O)NC3=O)C4=O)CC2)CC1 (centres undefined)
[8]
  Activity: inactive

## Nc1ncnc2c1c(-c1ccc(Oc3ccccc3)cc1)nn2C1CCN(C(=O)CCCN2CCN(C(=O)CCC(=O)Nc3ccc4c(c3)C(=O)N(C3CCC(=O)NC3=O)C4=O)CC2)CC1 (centres undefined)
[1]
  Activity: 41.8%

## Nc1ncnc2c1c(-c1ccc(Oc3ccccc3)cc1)nn2C1CCN(Cc2ccc(C#CC3CCN(c4ccc5c(c4)C(=O)N(C4CCC(=O)NC4=O)C5=O)CC3)nc2)CC1 (centres undefined)
[1]
  Activity: 62.7%
[3]
  Emax: 97.8%
[9]
  Activity: Active
[6]
  EC50: 51.1 nM

## Nc1ncnc2c1c(-c1ccc(Oc3ccccc3)cc1)nn2C1CCN(C(=O)CCCN2CCN(CCOCC(=O)Nc3ccc4c(c3)C(=O)N(C3CCC(=O)NC3=O)C4=O)CC2)CC1 (centres undefined)
[1]
  Activity: 40%

## Nc1ncnc2c1c(-c1ccc(Oc3ccccc3)cc1)nn2C1CCN(CC2CN(CC3CCN(c4cccc5c4C(=O)N(C4CCC(=O)NC4=O)C5=O)CC3)C2)CC1 (centres undefined)
[1]
  Activity: 36.2%

## Nc1ncnc2c1c(-c1ccc(Oc3ccccc3)cc1)nn2C1CCN(C(=O)CN2CCC(CN3CCN(CC#Cc4ccc5c(c4)C(=O)N(C4CCC(=O)NC4=O)C5=O)CC3)CC2)CC1 (centres undefined)
[1]
  Activity: 33.6%

## Nc1ncnc2c1c(-c1ccc(Oc3ccccc3)cc1)nn2C1CCN(C(=O)CN2CCN(CCOCCOCC(=O)Nc3ccc4c(c3)C(=O)N(C3CCC(=O)NC3=O)C4=O)CC2)CC1 (centres undefined)
[1]
  Activity: 38.9%

## Nc1ncnc2c1c(-c1ccc(Oc3ccccc3)cc1)nn2C1CCN(C(=O)CN2CCN(C(=O)CCCC(=O)Nc3ccc4c(c3)C(=O)N(C3CCC(=O)NC3=O)C4=O)CC2)CC1 (centres undefined)
[1]
  Activity: 61.9%

## Nc1ncnc2c1c(-c1ccc(Oc3ccccc3)cc1)nn2C1CCN(C(=O)c2ccc(N3CCN(CC#Cc4ccc5c(c4)C(=O)N(C4CCC(=O)NC4=O)C5=O)CC3)nc2)CC1 (centres undefined)
[1]
  Activity: 47.4%

## Nc1ncnc2c1c(-c1ccc(Oc3ccccc3)cc1)nn2C1CCN(C(=O)CN2CCN(CC3CCN(c4cccc5c4C(=O)N(C4CCC(=O)NC4=O)C5=O)CC3)CC2)CC1 (centres undefined)
[1]
  Activity: 91%
[2]
  Activity: Active
[3]
  Emax: 99.4%
[4]
  EC50: 10.3 nM
[9]
  Activity: Active
[5]
  Emax: 99.5%
[6]
  EC50: 9.37 nM
[7]
  Activity: Active

## Nc1ncnc2c1c(-c1ccc(Oc3ccccc3)cc1)nn2C1CCN(C(=O)c2ccc(N3CCN(c4ccc5c(c4)C(=O)N(C4CCC(=O)NC4=O)C5=O)CC3)nc2)CC1 (centres undefined)
[1]
  Activity: 71.7%
[3]
  Emax: 97.8%
[9]
  Activity: Active
[6]
  EC50: 26.9 nM

## Nc1ncnc2c1c(-c1ccc(Oc3ccccc3)cc1)nn2C1CCN(CC2CN(CC3CN(c4ccc5c(c4)C(=O)N(C4CCC(=O)NC4=O)C5=O)C3)C2)CC1 (centres undefined)
[1]
  Activity: 31.5%

## Nc1ncnc2c1c(-c1ccc(Oc3ccccc3)cc1)nn2C1CCN(C(=O)CN2CCN(CCOCC(=O)Nc3ccc4c(c3)C(=O)N(C3CCC(=O)NC3=O)C4=O)CC2)CC1 (centres undefined)
[1]
  Activity: 28.5%

## Nc1ncnc2c1c(-c1ccc(Oc3ccccc3)cc1)nn2C1CCN(C(=O)CN2CCC(N3CCN(CC#Cc4ccc5c(c4)C(=O)N(C4CCC(=O)NC4=O)C5=O)CC3)CC2)CC1 (centres undefined)
[1]
  Activity: 57.8%

## Nc1ncnc2c1c(-c1ccc(Oc3ccccc3)cc1)nn2C1CCN(Cc2ccc(C#CC3CCN(c4cccc5c4C(=O)N(C4CCC(=O)NC4=O)C5=O)CC3)nc2)CC1 (centres undefined)
[1]
  Activity: 58.6%
[3]
  Emax: 95%
[9]
  Activity: Active
[6]
  EC50: 46.1 nM

## Nc1ncnc2c1c(-c1ccc(Oc3ccccc3)cc1)nn2C1CCN(C(=O)CCCN2CCN(CCOCCOCC(=O)Nc3ccc4c(c3)C(=O)N(C3CCC(=O)NC3=O)C4=O)CC2)CC1 (centres undefined)
[1]
  Activity: 55%

## Nc1ncnc2c1c(-c1ccc(Oc3ccccc3)cc1)nn2C1CCN(CC2CN(CC3CN(c4cccc5c4C(=O)N(C4CCC(=O)NC4=O)C5=O)C3)C2)CC1 (centres undefined)
[1]
  Activity: 31.3%

## Nc1ncnc2c1c(-c1ccc(Oc3ccccc3)cc1)nn2C1CCN(C(=O)CN2CCN(CC#Cc3ccc4c(c3)C(=O)N(C3CCC(=O)NC3=O)C4=O)CC2)CC1 (centres undefined)
[1]
  Activity: 39.5%

## Nc1ncnc2c1c(-c1ccc(Oc3ccccc3)cc1)nn2C1CCN(C(=O)CN2CCN(C(=O)CCC(=O)Nc3ccc4c(c3)C(=O)N(C3CCC(=O)NC3=O)C4=O)CC2)CC1 (centres undefined)
[1]
  Activity: 61.5%

## Nc1ncnc2c1c(-c1ccc(Oc3ccccc3)cc1)nn2C1CCN(C(=O)CN2CCN(CC3CCN(c4ccc5c(c4)C(=O)N(C4CCC(=O)NC4=O)C5=O)CC3)CC2)CC1 (centres undefined)
[10]
  Activity: inactive
[1]
  Activity: 99.7%
[11]
  Activity: inactive
[12]
  Activity: inactive
[13]
  Activity: 100%
[14]
  Activity: Active
[3]
  Emax: 99.7%
[15]
  Activity: inactive
[4]
  EC50: 2.93 nM
[9]
  Activity: inactive
[16]
  Activity: Active
[5]
  Emax: 99.7%
[6]
  EC50: 6.11 nM

## Nc1ncnc2c1c(-c1ccc(Oc3ccccc3)cc1)nn2C1CCN(CCOCCOCC(=O)Nc2ccc3c(c2)C(=O)N(C2CCC(=O)NC2=O)C3=O)CC1 (centres undefined)
[1]
  Activity: 75.7%
[3]
  Emax: 92.4%
[6]
  EC50: 63.3 nM

## Nc1ncnc2c1c(-c1ccc(Oc3ccccc3)cc1)nn2C1CCN(CC2CN(c3cccc4c3C(=O)N(C3CCC(=O)NC3=O)C4=O)C2)CC1 (centres undefined)
[8]
  Activity: inactive
